Earlier results, collected in paper PMC9420858, “Synthesis, bioactivity, and molecular docking of novel arylpiperazine derivatives as potential AR antagonists” (Frontiers in Chemistry, 2022).

Assays:
[1] = system: PC-3 cells; details: printed without SD, ref Banday et al., 2014, read-out: PC-3 IC50 (control compound finasteride); cited from earlier work
[2] = system: LNCaP cells; details: printed without SD, ref Banday et al., 2014, read-out: LNCaP IC50 (control compound finasteride); cited from earlier work

In the case of CC(C)(C)NC(=O)[C@H]1CC[C@H]2[C@@H]3CC[C@H]4NC(=O)C=C[C@]4(C)[C@H]3CC[C@]12C [Finasteride], the IC50 [1] is given as 17.8 µM and the IC50 [2] is given as 13.5 µM.
